Series [1] is described as follows: Binding affinity to ergosterol-containing palmitoyloleoylphosphatidylcholine membrane at 0.84 uM by UV spectra analysis. The series is classed as physicochemical.
Series [2] is described as follows: Ratio of amphotericin B EC50 to compound EC50 for human erythrocytes. Conditions: read-out: Ratio EC50; call rule not given here. The series is classed as ADME, cell-based, Erythrocyte.
Series [3] in a line: Hemolytic activity against human erythrocytes after 18 hrs by spectrophotometry. The note with it: Erythrocyte. The series is classed as ADME, cell-based.
In series [4] the test system is Aspergillus niger. Nature of the series: Antifungal activity against Aspergillus niger assessed as minimum compound concentration per disc required for inhibition zone formation after 50 hrs by disc diffusion assay. The series is classed as functional.
A short description of series [5]: Binding affinity to ergosterol-containing palmitoyloleoylphosphatidylcholine membrane at 1.67 uM by UV spectra analysis. It counts as physicochemical.
Series [6] can be described thus: Binding affinity to ergosterol-containing palmitoyloleoylphosphatidylcholine membrane by UV spectra analysis. The series is classed as physicochemical.

On to `COC(=O)[C@H]1[C@@H]2C[C@@H](O[C@@H]3O[C@H](C)[C@@H](O)[C@H](NCCCNC(=O)CNC(=O)[C@H]4[C@@H]5C[C@@H](O[C@@H]6O[C@H](C)[C@@H](O)[C@H](N)[C@@H]6O)/C=C/C=C/C=C/C=C/C=C/C=C/C=C/[C@H](C)[C@@H](O)[C@@H](C)[C@H](C)OC(=O)C[C@H](O)C[C@H](O)CC[C@@H](O)[C@H](O)C[C@H](O)C[C@](O)(C[C@@H]4O)O5)[C@@H]3O)/C=C/C=C/C=C/C=C/C=C/C=C/C=C/[C@H](C)[C@@H](O)[C@@H](C)[C@H](C)OC(=O)C[C@H](O)C[C@H](O)CC[C@@H](O)[C@H](O)C[C@H](O)C[C@](O)(C[C@@H]1O)O2`, for which the outcome in series [1] was Active.

Consider `C[C@@H]1[C@H](O)[C@@H](C)/C=C/C=C/C=C/C=C/C=C/C=C/C=C/[C@H](O[C@@H]2O[C@H](C)[C@@H](O)[C@H](NCCCNC(=O)CNC(=O)[C@@H]3[C@@H](O)[C@H](F)[C@@]4(O)C[C@@H](O)C[C@@H](O)[C@H](O)CC[C@@H](O)C[C@@H](O)CC(=O)O[C@@H](C)[C@H](C)[C@H](O)[C@@H](C)/C=C/C=C/C=C/C=C/C=C/C=C/C=C/[C@H](O[C@@H]5O[C@H](C)[C@@H](O)[C@H](N)[C@@H]5O)C[C@@H]3O4)[C@@H]2O)C[C@@H]2O[C@](O)(C[C@@H](O)C[C@@H](O)[C@H](O)CC[C@@H](O)C[C@@H](O)CC(=O)O[C@H]1C)C[C@H](O)[C@H]2C(=O)O[13CH3]`, for which the selectivity ratio in series [2] turned out to be 6. The molecule further registered an EC50 in series [3] of 13 µM. For the same molecule, the Activity in series [4] was 50 µg.

In the case of `COC(=O)[C@H]1[C@@H]2C[C@@H](O[C@@H]3O[C@H](C)[C@@H](O)[C@H](N)[C@@H]3O)/C=C/C=C/C=C/C=C/C=C/C=C/C=C/[C@H](C)[C@@H](O)[C@@H](C)[C@H](C)OC(=O)C[C@H](O)C[C@H](O)CC[C@@H](O)[C@H](O)C[C@H](O)C[C@](O)(C[C@@H]1O)O2` [AMPHOTERICIN B ME ESTER], the outcome in series [5] was Active.

For `C[C@@H]1[C@H](O)[C@@H](C)/C=C/C=C/C=C/C=C/C=C/C=C/C=C/[C@H](O[C@@H]2O[C@H](C)[C@@H](O)[C@H](N)[C@@H]2O)C[C@@H]2O[C@](O)(C[C@@H](O)C[C@@H](O)[C@H](O)CC[C@@H](O)C[C@@H](O)CC(=O)O[C@H]1C)C[C@H](O)[C@H]2C(=O)O` [AMPHOTERICIN B], the Activity result in series [6] is “Active”; in series [4], 10 µg. In series [3], this molecule had an EC50 of 2 µM.

The record behind these values is ChEMBL document CHEMBL2146389, “Possible conformation of amphotericin B dimer in membrane-bound assembly as deduced from solid-state NMR” (Bioorg Med Chem, 2012).
